How the values were obtained:
Acidic stability test = type: physicochemical; conditions: for variation in concentrations between beginning and after 24 h: 37°C, acidic solutions pH 2.6–6.5; for stability in acidic solutions: 24 h incubation at 37°C, pH 2.6–6.5
Description: 1 mg/mL of belinostat-G and vorinostat-G was prepared in various vehicles with different pH values. These vehicles included 10 mM ammonium acetate (pH = 6.5), 10 mM ammonium formate (pH = 6.0), 0.1% acetic acid (pH = 3.2) and 0.1% formic acid (pH = 2.6). All of these test samples were incubated at 37°C for 24 h. Milli Q water (pH = 5.5) was used as control solution which was stored in −20°C. All the samples were analyzed by LC-MS/MS to obtain the values of peak area for belinostat-G and vorinostat-G. The acidic stability of both conjugated compounds was evaluated through comparison of peak area ratio of test samples versus control.

HepG2 cells [1] = assay: Gentian Violet viability staining, 24-well plates; type: cell-based, human; conditions: 0–10 µM, 72 h
Description: (§1) To the other plate, equal molar concentrations of belinostat-G were added similarly. After 72 h, cells were stained with Gentian Violet paint (0.5% w/v; B.P.) and assessed for viability. […] After incubating 24 h, 100-µL drug solution or blank medium was added into each well of 96-well plates. 72 h later, 20 µL of MTS/PES was added into each well for incubation for 3 h. OD values are measured on wavelength 490 nm. Cell growth inhibition was calculated based on the […] with subtraction of background reading for only medium containing wells. The growth inhibition was defined as the percentage of the average […] from drug-treated wells over that from control wells without treatment. The experiment was done in triplicates. IC50 values were calculated using GraphPad PRISM software (GraphPad Software, Inc., La Jolla, CA, USA).

[2] = Pharmacokinetics after 30 min i.v. infusion, phase I trial in hepatocellular carcinoma patients; type: in vivo, human; conditions: for Relative Exposure, Bel-G/Bel AUC ratio: AUC0–24 h molar ratio; for relative systemic exposure of belinostat glucuronide versus belinostat: human plasma, molar concentration AUC ratio
Description: This multicentre phase I trial of belinostat was done in Hong Kong and Singapore. All patients provided written informed consent according to Good Clinical Practice guidelines, and the protocol was approved by the institutional review boards of Prince of Wales Hospital, Hong Kong and National University Hospital, Singapore.
Venous blood samples had been collected in heparinized tubes. Collected blood samples were centrifuged at 3000 g for 10–15 min and the plasma (supernatant) was separated from the cell pellet and stored in plain tubes at –80°C till analysis. […] Briefly, vorinostat-G was used as the internal standard for belinostat-G. The mass spectrometer was operated in positive ion mode with the optimal mass transitions of belinostat-G: m/z 495>93 and vorinostat-G: m/z 441>232, respectively. The analytical method was well validated with good linearity (coefficient of determination, r^2≥0.999) in the range of 1–100 µM for belinostat-G.
Pharmacokinetic parameters were estimated based on non-compartmental analysis model using WinNonlin software version 5.3 (Pharmsight, Sunnyvale, CA, USA). […] One way analysis of variance (ANOVA) was used to determine the significance among the genotypes with Tukey posthoc tests for adjustment for comparison between individual groups. A value of p<0.05 was considered to be significant.

HepG2 cells [3] = assay: MTS growth inhibition assay; type: cell-based, human; conditions: HepG2, 72 h
Description: as §1

[4] = substrate: O=C(/C=C/c1cccc(S(=O)(=O)Nc2ccccc2)c1)NO; assay: UGT supersome screening and kinetic analysis; type: in vitro ADME, human; conditions: other: UGT1A1 supersomes, 10 to 750 µM substrate, Michaelis-Menten
Description: Before the addition of substrate, the incubation mixture was prewarmed and equilibrated for 5 min at 37°C. […] The incubation mixture was vortexed and centrifuged (10,060 g) at 4°C for 10 min, and the supernatants were analyzed. Insect microsomes without UGT cDNA served as negative control. […] Incubations were performed as described above. Three independent experiments were performed for kinetic analysis.
Plots of substrate concentration, S (X axis) versus v (Y axis) were then constructed. Km and Vmax were calculated using the Michaelis-Menten equation (GraphPad software, Inc., San Diego, CA, USA).

Molecule: O=C(CCCCCCC(=O)Nc1ccccc1)NO[C@@H]1O[C@H](C(=O)O)[C@@H](O)[C@H](O)[C@H]1O [vorinostat-G, Vorinostat glucuronide]
- variation in concentrations between beginning and after 24 h (Acidic stability test): < 4%
- stability in acidic solutions (Acidic stability test): stable

Molecule: O=C(/C=C/c1cccc(S(=O)(=O)Nc2ccccc2)c1)NO[C@@H]1O[C@H](C(=O)O)[C@@H](O)[C@H](O)[C@H]1O [Belinostat-G, Belinostat glucuronide]
- cytotoxicity / cell viability (staining) (HepG2 cells [1]): did not seem to affect cell viability
- Relative Exposure, Bel-G/Bel AUC ratio ([2]; 600 mg/m^2): 4.79±0.46
- Relative Exposure, Bel-G/Bel AUC ratio ([2]; 900 mg/m^2): 4.22±0.15
- Relative Exposure, Bel-G/Bel AUC ratio ([2]; 1200 mg/m^2): 4.82±1.80
- Relative Exposure, Bel-G/Bel AUC ratio ([2]; 1400 mg/m^2): 4.13±0.68
- relative systemic exposure of belinostat glucuronide versus belinostat ([2]; listed as belinostat glucuronide): more than 4 fold
- relative systemic exposure of belinostat glucuronide versus belinostat ([2]; listed as belinostat-G): 4 fold
- IC50 (MTS) (HepG2 cells [3]): cannot be converged
- variation in concentrations between beginning and after 24 h (Acidic stability test): < 4%
- stability in acidic solutions (Acidic stability test): stable
- degradation (Acidic stability test; pH 2.6, 37°C, 24 h): 7%

B1: UGT1A1 (Homo sapiens) (protein)
chain: HAGKILLIPVDGSHWLSMLGAIQQLQQRGHEIVVLAPDASLYIRDGAFYTLKTYPVPFQREDVKESFVSLGHNVFENDSFLQRVIKTYKKIKKDSAMLLSGCSHLLHNKELMASLAESSFDVMLTDPFLPCSPIVAQYLSLPTVFFLHALPCSLEFEATQCPNPFSYVPRPLSSHSDHMTFLQRVKNMLIAFSQNFLCDVVYSPYATLASEFLQREVTVQDLLSSASVWLFRSDFVKDYPRPIMPNMVFVGGINCLHQNPLSQEFEAYINASGEHGIVVFSLGSMVSEIPEKKAMAIADALGKIPQTVLWRYTGTRPSNLANNTILVKWLPQNDLLGHPMTRAFITHAGSHGVYESICNGVPMVMMPLFGDQMDNAKRMETKGAGVTLNVLEMTSEDLENALKAVINDKSYKENIMRLSSLHKDRPVEPLDLAVFWVEFVMRHKGAPHLRPAAHDLTWYQYHSLDVIGFLLAVVLTVAFITFKCCAYGYRKCLGKKGRVKKAHKSKTH
notes: purchased BD Gentest
- Km [4]: 99.6 µM
- Vmax [4]: 353.1 pmol/min/mg protein
- Vmax/Km [4]: 3.5 µL/min/mg protein
